Columns and labels:
[1] = molecular target: T1, Cyclin E/CDK2 (Homo sapiens, UniProt P24941); assay: CDK2 assay (Cyclin E/CDK2 in vitro kinase SPA assay, biotinylated Histone H1 peptide); type: biochemical; conditions: read-out: CDK2 IC 50
T1 construct: made in house; host or cells: SF9 insect cells, baculovirus co-infection

[2] = molecular target: T2, His-CHK1 (Homo sapiens, UniProt O14757); assay: CHK1 SPA assay (recombinant His-CHK1, biotinylated CDC25C peptide, 33P-ATP)
T2 sequence (O14757 1-265 limits assumed): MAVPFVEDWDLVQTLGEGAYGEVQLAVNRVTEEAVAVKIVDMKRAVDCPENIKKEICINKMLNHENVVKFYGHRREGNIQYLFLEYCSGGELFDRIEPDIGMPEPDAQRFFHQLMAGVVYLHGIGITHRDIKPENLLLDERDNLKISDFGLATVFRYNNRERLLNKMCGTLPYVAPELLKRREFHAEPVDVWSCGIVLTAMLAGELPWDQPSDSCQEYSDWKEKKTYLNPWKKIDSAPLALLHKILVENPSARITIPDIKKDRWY

For `Cc1cc(Nc2nc(C3=CCCNC3)cn3c(-c4cnn(C)c4)cnc23)sc1S(=O)(=O)N1CCOCC1`, the IC50 [1] was 6.95 µM.
Work on `Cn1cc(-c2cnc3c(Nc4ccns4)nc(CCN)cn23)cn1` yielded an IC50 [2] of 0.017 µM and an IC50 [1] of 0.55 µM.
In the case of `CCN(CC)S(=O)(=O)c1sc(Nc2nc(C3=CCCNC3)cn3c(-c4cnn(C)c4)cnc23)cc1C`, the IC50 [1] is reported as 8.28 µM.

Reference: patent US20070117804A1, “Imidazopyrazines as protein kinase inhibitors” (Schering Corporation, priority 2005, published 2007)
